Values quoted from earlier work in patent publication US20250235488A1, “COMPOSITIONS AND METHODS FOR PROVIDING HEMATOPOIETIC FUNCTION” (Fred Hutchinson Cancer Center, priority 2010, published 2025).

How the values were obtained:
[1] = not given; remark: listed apart in the source

| SMILES | solubility in alcohol | solubility in lipids | solubility in water | CSF concentrations as percentage of concurrent plasma concentrations ([1]; in vivo) | time after which no intact drug is detectable in plasma ([1]; in vivo, iv) | plasma half-life, initial phase ([1]; after rapid IV injection) | plasma half-life, terminal phase ([1]; after rapid IV injection) | dose excreted in the urine within 24 hours ([1]; rapid IV, IM, SQ, IT injection or continuous IV infusion) |
| --- | --- | --- | --- | --- | --- | --- | --- | --- |
| O=NN(CCCl)C(=O)NCCCl [Carmustine] | freely soluble | highly soluble | slightly soluble | 15-70% | 15 min |  |  |  |
| Nc1ccn([C@@H]2O[C@H](CO)[C@@H](O)[C@@H]2O)c(=O)n1 [Cytarabine] |  |  |  |  |  | about 10 minutes | 1 to 3 h | 70-80% |
